# Measured values reported in patent US20230059136A1, “THE COMPOUNDS AND COMPOSITIONS FOR TREATING CONDITIONS ASSOCIATED WITH NLRP ACTIVITY” (Novartis AG, priority 2018, published 2023).
# System: IL-1β production in PMA-differentiated THP-1 cells
# Assay: IL-1β production in PMA-differentiated THP-1 cells stimulated with gramicidin (hTHP-1 assay containing 2% fetal bovine serum)
# Type: cell-based, human
# Settings: Homo sapiens, THP-1, Table B1; 2% fetal bovine serum; cells printed as numeric bound; read-out: hTHP-1 IC50 (Average IC50 of compounds in hTHP-1 assay)
# How it was run: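 THP-1 cells were differentiated with PMA 20 ng/ml for 16-18 h, then plated at 50,000 cells/well in RPMI with 2% FBS. They were preincubated 1 h with compound (100–0.0017 μM final, 0.37% DMSO), then stimulated with gramicidin 5 μM for 2 h. Supernatant IL-1β was measured by HTRF.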
row,IC50,SMILES
1,> 30000 nM,"CC(C)c1cc(F)cc(C(C)C)c1C(C)C(=O)N=S(N)(=O)c1cnc(C(C)(C)O)s1 (single isomer, unassigned) [Example 195, (R, R) or (R, S)-N-(amino (2-(2-hydroxypropan-2-yl)thiazol-5-yl)(oxo)-λ^6-sulfaneylidene)-2-(4-fluoro-2,6-diisopropylphenyl) propanamide]"

# Same assay, conditions: Homo sapiens, THP-1, Table B1; 2% fetal bovine serum; class symbols; read-out: hTHP-1 IC50 (Average IC50 of compounds in hTHP-1 assay)
row,IC50,SMILES
1,1000 to 5000 nM,"CC(C)c1cc2c(c(C(C)C)c1CC(=O)N=S(N)(=O)c1ccc(CN(C)C)cc1)COC2 (single isomer, unassigned) [Example 191, (R) or (S)-N-(amino(4-((dimethylamino)methyl)phenyl)(oxo)-λ^6-sulfaneylidene)-2-(4,6-diisopropyl-1,3-dihydroisobenzofuran-5-yl)acetamide]"
2,5000 to 30000 nM,"CC(C)(O)c1ncc(S(N)(=O)=NC(=O)Cc2c(C3CC3)cc(F)cc2C(F)(F)F)s1 (single isomer, unassigned) [Example 196, (R) or (S)-N-(amino (2-(2-hydroxypropan-2-yl)thiazol-5-yl)(oxo)-λ^6-sulfaneylidene)-2-(2-cyclopropyl-4-fluoro-6-(trifluoromethyl)phenyl) acetamide]"
3,1000 to 5000 nM,"CC(C)c1cc2c(c(C(C)C)c1CC(=O)N=S(N)(=O)c1cnc(C(C)(C)O)s1)CCC2 (single isomer, unassigned) [Example 213, (S) or (R)-N-(amino(2-(2-hydroxypropan-2-yl)thiazol-5-yl)(oxo)-λ^6-sulfaneylidene)-2-(4,6-diisopropyl-2,3-dihydro-1H-inden-5-yl)acetamide]"

# Same assay, conditions: Table B1; 2% fetal bovine serum; class symbols; read-out: hTHP-1 IC50 (Average IC50 of compounds in hTHP-1 assay)
row,IC50,SMILES
1,1000 to 5000 nM,"CC(C)c1cc(F)c(F)c(C(C)C)c1CC(=O)N=S(N)(=O)c1nc(C(C)(C)O)cs1 (single isomer, unassigned) [Example 178, (S) or (R)-N-(amino(4-(2-hydroxypropan-2-yl)thiazol-2-yl)(oxo)-λ^6-sulfaneylidene)-2-(3,4-difluoro-2,6-diisopropylphenyl) acetamide]"
2,40 to 200 nM,"CC(C)c1ccc(F)c(C(C)C)c1CC(=O)N=S(N)(=O)c1nc(C(C)(C)O)cs1 (single isomer, unassigned) [Example 181, (R) or (S)-N-(amino(4-(2-hydroxypropan-2-yl)thiazol-2-yl)(oxo)-λ^6-sulfaneylidene)-2-(3-fluoro-2,6-diisopropylphenyl) acetamide]"
3,5000 to 30000 nM,"CC(C)c1ccc(F)c(C(C)C)c1CC(=O)N=S(N)(=O)c1nc(C(C)(C)O)cs1 (single isomer, unassigned) [Example 182, (S) or (R)-N-(amino(4-(2-hydroxypropan-2-yl)thiazol-2-yl)(oxo)-λ^6-sulfaneylidene)-2-(3-fluoro-2,6-diisopropylphenyl) acetamide]"
4,200 to 1000 nM,"CC(C)c1cc2c(c(C(C)C)c1CC(=O)N=S(N)(=O)c1cnc(C(C)(C)O)s1)COC2 (single isomer, unassigned) [Example 183, (R) or (S)-N-(amino(2-(2-hydroxypropan-2-yl)thiazol-5-yl)(oxo)-λ^6-sulfaneylidene)-2-(4,6-diisopropyl-1,3-dihydro-isobenzofuran-5-yl)acetamide]"
5,5000 to 30000 nM,"CC(C)c1cc2c(c(C(C)C)c1CC(=O)N=S(N)(=O)c1cnc(C(C)(C)O)s1)COC2 (single isomer, unassigned) [Example 184, (S) or (R)-N-(amino(2-(2-hydroxypropan-2-yl)thiazol-5-yl)(oxo)-λ^6-sulfaneylidene)-2-(4,6-diisopropyl-1,3-dihydro-isobenzofuran-5-yl)acetamide]"
6,5000 to 30000 nM,"CC(C)c1ccc(F)c(C(C)C)c1CC(=O)N=S(N)(=O)c1ncc(C(C)(C)O)s1 (single isomer, unassigned) [Example 187, (S) or (R)-N-(amino(5-(2-hydroxypropan-2-yl)thiazol-2-yl)(oxo)-λ^6-sulfaneylidene)-2-(3-fluoro-2,6-diisopropylphenyl) acetamide]"
7,200 to 1000 nM,"CC(C)c1ccc(F)c(C(C)C)c1CC(=O)N=S(N)(=O)c1ncc(C(C)(C)O)s1 (single isomer, unassigned) [Example 188, (R) or (S)-N-(amino(5-(2-hydroxypropan-2-yl)thiazol-2-yl)(oxo)-λ^6-sulfaneylidene)-2-(3-fluoro-2,6-diisopropylphenyl) acetamide]"
8,1000 to 5000 nM,"CC(C)c1cc(C#N)c(F)c(C(C)C)c1CC(=O)N=S(N)(=O)c1nc(C(C)(C)O)cs1 (single isomer, unassigned) [Example 189, (S) or (R)-N-(amino(4-(2-hydroxypropan-2-yl)thiazol-2-yl)(oxo)-λ^6-sulfaneylidene)-2-(4-cyano-3-fluoro-2,6-diisopropylphenyl) acetamide]"
9,40 to 200 nM,"CC(C)c1cc(C#N)c(F)c(C(C)C)c1CC(=O)N=S(N)(=O)c1nc(C(C)(C)O)cs1 (single isomer, unassigned) [Example 190, (R) or (S)-N-(amino(4-(2-hydroxypropan-2-yl)thiazol-2-yl)(oxo)-λ^6-sulfaneylidene)-2-(4-cyano-3-fluoro-2,6-diisopropylphenyl) acetamide]"
10,40 to 200 nM,"CC(C)c1ncc(F)c(C(C)C)c1CC(=O)N=S(N)(=O)c1cc(C(C)(C)O)cs1 (single isomer, unassigned) [Example 208, N-(amino(4-(2-hydroxypropan-2-yl)thiophen-2-yl)(oxo)-λ^6-sulfaneylidene)-2-(5-fluoro-2,4-diisopropylpyridin-3-yl)acetamide]"
11,1000 to 5000 nM,"CC(C)c1ncc(F)c(C(C)C)c1CC(=O)N=S(N)(=O)c1cc(C(C)(C)O)cs1 (single isomer, unassigned) [Example 209, (S) or (R)-N-(amino(4-(2-hydroxypropan-2-yl)thiophen-2-yl)(oxo)-λ^6-sulfaneylidene)-2-(5-fluoro-2,4-diisopropylpyridin-3-yl)acetamide]"
12,5000 to 30000 nM,"CC(C)c1ncc(F)c(C(C)C)c1CC(=O)N=S(N)(=O)c1sc(C(C)(C)O)cc1F (single isomer, unassigned) [Example 210, (S) or (R)-N-(amino (3-fluoro-5-(2-hydroxypropan-2-yl)thiophen-2-yl)(oxo)-λ^6-sulfaneylidene)-2-(5-fluoro-2,4-diisopropylpyridin-3-yl)acetamide]"
13,200 to 1000 nM,"CC(C)c1ncc(F)c(C(C)C)c1CC(=O)N=S(N)(=O)c1sc(C(C)(C)O)cc1F (single isomer, unassigned) [Example 211, N-(amino(3-fluoro-5-(2-hydroxypropan-2-yl)thiophen-2-yl)(oxo)-λ^6-sulfaneylidene)-2-(5-fluoro-2,4-diisopropylpyridin-3-yl)acetamide]"

# More lines, now with the values behind:
row,SMILES,IC50
1,"CC(C)c1ccc(C#N)c(C(C)C)c1CC(=O)N=S(N)(=O)c1nc(C(C)(C)O)cs1 (single isomer, unassigned) [Example 179, (R) or (S)-N-(amino(4-(2-hydroxypropan-2-yl)thiazol-2-yl)(oxo)-λ^6-sulfaneylidene)-2-(3-cyano-2,6-diisopropylphenyl) acetamide]",200 to 1000 nM
2,"CC(C)c1ccc(C#N)c(C(C)C)c1CC(=O)N=S(N)(=O)c1nc(C(C)(C)O)cs1 (single isomer, unassigned) [Example 180, (S) or (R)-N-(amino(4-(2-hydroxypropan-2-yl)thiazol-2-yl)(oxo)-λ^6-sulfaneylidene)-2-(3-cyano-2,6-diisopropylphenyl) acetamide]",5000 to 30000 nM
3,"COCc1cc(C(C)C)c(CC(=O)N=S(N)(=O)c2ncc(C(C)(C)O)s2)c(C(C)C)c1 (single isomer, unassigned) [Example 185, (R) or (S)-N-(amino(5-(2-hydroxypropan-2-yl)thiazol-2-yl)(oxo)-λ^6-sulfaneylidene)-2-(2,6-diisopropyl-4-(methoxymethyl)phenyl)acetamide]",40 to 200 nM
4,"COCc1cc(C(C)C)c(CC(=O)N=S(N)(=O)c2ncc(C(C)(C)O)s2)c(C(C)C)c1 (single isomer, unassigned) [Example 186, (S) or (R)-N-(amino(5-(2-hydroxypropan-2-yl)thiazol-2-yl)(oxo)-λ^6-sulfaneylidene)-2-(2,6-diisopropyl-4-(methoxymethyl)phenyl)acetamide]",5000 to 30000 nM
5,"CC(C)c1nc(-c2cccc(C(F)(F)F)c2)c(F)c(C(C)C)c1CC(=O)N=S(N)(=O)c1cnc(C(C)(C)O)s1 (single isomer, unassigned) [Example 202, N-(amino(2-(2-hydroxypropan-2-yl)thiazol-5-yl)(oxo)-λ^6-sulfaneylidene)-2-(5-fluoro-2,4-diisopropyl-6-(3-(trifluoromethyl)phenyl)pyridin-3-yl) acetamide]",200 to 1000 nM
6,"CC(C)c1nc(-c2cccc(C(F)(F)F)c2)c(F)c(C(C)C)c1CC(=O)N=S(N)(=O)c1cnc(C(C)(C)O)s1 (single isomer, unassigned) [Example 203, (S) or (R)-N-(amino (2-(2-hydroxypropan-2-yl)thiazol-5-yl)(oxo)-λ^6-sulfaneylidene)-2-(5-fluoro-2,4-diisopropyl-6-(3-(trifluoromethyl)phenyl)pyridin-3-yl) acetamide]",5000 to 30000 nM
7,"CC(C)c1cc(C(F)F)cc(C(C)C)c1CC(=O)N=S(N)(=O)c1ccc(CN(C)C)cc1F (single isomer, unassigned) [Example 214, (R) or (S)-N-(amino(4-((dimethylamino)methyl)-2-fluorophenyl) (oxo)-λ^6-sulfaneylidene)-2-(4-(difluoromethyl)-2,6-diisopropylphenyl) acetamide]",40 to 200 nM
8,"CC(C)c1cc(C(F)F)cc(C(C)C)c1CC(=O)N=S(N)(=O)c1ccc(CN(C)C)cc1F (single isomer, unassigned) [Example 215, (S) or (R)-N-(amino(4-((dimethylamino)methyl)-2-fluorophenyl) (oxo)-λ^6-sulfaneylidene)-2-(4-(difluoromethyl)-2,6-diisopropylphenyl) acetamide]",1000 to 5000 nM
